Legend:
women with endometriosis = experiment: Bone mineral density (BMD) of the lumbar spine by DEXA, ratio of 6 month to baseline; type: in vivo; conditions: deslorelin alone, another study
Description: Women with endometriosis treated with intranasal deslorelin (a GnRH compound) were assigned to one of three methods of estradiol add-back: (1) 50 μg/day estradiol transdermal patch, (2) 300 μg/day intranasal estradiol, or (3) 300 μg/day intranasal estradiol with 275 μg/day intranasal testosterone. Loss of bone mineral density (BMD) is a known side effect of treatment with GnRH compounds. Thus, BMD of the lumbar spine (L1–L4) of the test subjects in Example 4 was obtained bydual-energy X-ray absorptiometry (DEXA) prior to and after six months of treatment. The results are shown in Table 4 as the ratio of BMD at the six month time point (BMD6mo.) to the BMD prior to treatment (BMDbaseline).
Women with endometriosis treated with intranasal deslorelin (GnRH compound) were assigned to one of three methods of add-back: (1) 50 μg/day estradiol transdermal patch, (2) 300 μg/day intranasal estradiol, or (3) 300 μg/day intranasal estradiol with 275 μg/day intranasal testosterone. Bone mineral density (BMD) of the lumbar spine was obtained by dual-energy X-ray absorptiometry (DEXA) prior to and after six months of drug treatment. BMD changes are shown in Table 4 as the ratio of the 6 month value compared to the baseline value.

[1] = cited from earlier work

| Compound | Ratio of 6 Month BMD to Baseline BMD, Mean (women with endometriosis) | water solubility (at 25° C., g/100 mL) [1] [g/100 mL] |
| --- | --- | --- |
| CCNC(=O)[C@@H]1CCCN1C(=O)[C@H](CCCN=C(N)N)NC(=O)[C@H](CC(C)C)NC(=O)[C@@H](Cc1c[nH]c2ccccc12)NC(=O)[C@H](Cc1ccc(O)cc1)NC(=O)[C@H](CO)NC(=O)[C@H](Cc1c[nH]c2ccccc12)NC(=O)[C@H](Cc1cnc[nH]1)NC(=O)[C@@H]1CCC(=O)N1 [Deslorelin (D), deslorelin] | 0.971 | – |
| OC[C@H]1O[C@@H]2O[C@H]3[C@H](O)[C@@H](O)[C@@H](O[C@H]4[C@H](O)[C@@H](O)[C@@H](O[C@H]5[C@H](O)[C@@H](O)[C@@H](O[C@H]6[C@H](O)[C@@H](O)[C@@H](O[C@H]7[C@H](O)[C@@H](O)[C@@H](O[C@H]8[C@H](O)[C@@H](O)[C@@H](O[C@H]9[C@H](O)[C@@H](O)[C@@H](O[C@H]%10[C@H](O)[C@@H](O)[C@@H](O[C@H]1[C@H](O)[C@H]2O)O[C@@H]%10CO)O[C@@H]9CO)O[C@@H]8CO)O[C@@H]7CO)O[C@@H]6CO)O[C@@H]5CO)O[C@@H]4CO)O[C@@H]3CO [δ-cyclodextrin] | – | 8.19 |
